According to patent US20230286983A1 (4E Therapeutics, Inc., priority 2020, published 2023):

Assays:
MNK1 = MNK1 (Homo sapiens, UniProt Q9BUB5); experiment: MNK1 substrate phosphorylation assay; assay type: biochemical; details: recombinant human kinase
MNK2 = MNK2 (Homo sapiens, UniProt Q9HBH9); experiment: MNK2 substrate phosphorylation assay; assay type: biochemical; details: recombinant human kinase
[1] = system: eIF4E phosphorylation at Serine 209 in the human embryonic kidney (HEK) 293 cell line; experiment: eIF4E phosphorylation in HEK 293 cells (fluorescent plate reader); assay type: cell-based; details: eIF4E phosphorylation at Serine 209, 2 hours exposure
Description: The ability of MNK inhibitors described herein to inhibit eIF4E phosphorylation at Serine 209 in the human embryonic kidney (HEK) 293 cell line was tested by exposing the cells to compound for 2 hours and then measuring eIF4E phosphorylation with a phosphorylation-specific antibody in a fluorescent plate reader. These experiments were done with HEK-293 cells plated on 96 well plates. Following treatment, cells were fixed with ice cold methanol for 10 min and then washed in 1× phosphate buffered saline (PBS) and the permeabilized with 0.02% Triton X-100 in 10% normal goat serum made up in PBS. Primary antibody was applied overnight at a concentration dilution of 1:2000 (p-eIF4E antibody from Cell Signaling ab76256). Following washing, cells were then exposed to secondary antibody conjugated to alexa-fluor 488 and then visualized on a Syngergy HTX plate reader. Fluorescence for p-eIF4E was measured and normalized to total DAPI fluorescence to determine the percentage of eIF4E phosphorylation in each well. Data were plotted in Graphpad Prism V8 to determine concentration-response effects and calculate IC50 values.

[2] = Liver microsome stability, mouse; assay type: in vitro ADME; details: mouse liver microsomes, Table 11b; for half-life: mouse, liver microsomes, read-out: T1/2
P-gp (human MDR1, ABCB1) = experiment: MDCK-MDR1 permeability (blood brain barrier permeability); assay type: in vitro ADME, Canine; details: dog; for efflux ratio at 5 μM: MDCK-MDR1, 5 μM, read-out: Efflux ratio (ratio B-A/A-B); for Papp A→B at 5 μM: MDCK-MDR1, Apical to basolateral transport; for Papp A→B at 5 μM / Papp B→A at 5 μM: average of two experiments; for Papp B→A at 5 μM: MDCK-MDR1, Basolateral to apical transport
MDCK-MDR1 = experiment: as above; assay type: in vitro ADME, Canine; details: 5 μM; for Papp A-B: Apical to basolateral transport; for Papp A-B / Papp B-A: average of two experiments; for Papp B-A: Basolateral to apical transport
[3] = target: Cdc2-like kinase 4 (CLK4) (Homo sapiens, UniProt Q9HAZ1); experiment: Off-target kinase screen CLK4; assay type: biochemical; details: 1 μM test compound
Sequence of Cdc2-like kinase 4 (CLK4) (Q9HAZ1 whole entry): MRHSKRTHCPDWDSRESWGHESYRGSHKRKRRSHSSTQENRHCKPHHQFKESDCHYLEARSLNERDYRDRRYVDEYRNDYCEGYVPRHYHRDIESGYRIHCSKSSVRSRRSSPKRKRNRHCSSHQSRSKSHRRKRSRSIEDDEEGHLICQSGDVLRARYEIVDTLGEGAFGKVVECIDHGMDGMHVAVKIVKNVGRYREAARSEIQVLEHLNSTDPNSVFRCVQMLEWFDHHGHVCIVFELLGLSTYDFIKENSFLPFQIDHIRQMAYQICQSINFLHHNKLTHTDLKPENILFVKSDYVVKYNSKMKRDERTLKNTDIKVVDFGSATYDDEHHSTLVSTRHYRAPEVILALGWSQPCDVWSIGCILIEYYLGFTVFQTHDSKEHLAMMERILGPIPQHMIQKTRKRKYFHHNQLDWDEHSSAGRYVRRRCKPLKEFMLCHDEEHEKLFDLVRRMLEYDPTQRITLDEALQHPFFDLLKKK
Text: (§1) These kinases were chosen because they are the only known off-target hit kinases for eFT508. These assays were done using recombinant human kinases (CLK4, DRAK1 and PKG2) in a substrate phosphorylation assay. % activity remaining after MNK inhibitor treatment is indicated in Table 12.

[4] = system: eIF4E phosphorylation at Serine 209 in Karpas 299; experiment: eIF4E phosphorylation in Karpas 299 cells (sandwich ELISA); assay type: cell-based; details: Homo sapiens, read-out: Karpas 299 cell IC50
Description: The ability of MNK inhibitors described herein to inhibit eIF4E phosphorylation at Serine 209 in Karpas 299, Human Non-Hodgkin's Ki-positive Large Cell Lymphoma cell line was tested by sandwich enzyme linked immune-absorbance assay.

[5] = target: T1, death-associated protein kinase-related apoptosis-inducing protein kinase 1 (DRAK1) (Homo sapiens, UniProt Q9UEE5); experiment: Off-target kinase screen DRAK1; assay type: biochemical; details: 1 μM test compound
T1 sequence (Q9UEE5 1-414): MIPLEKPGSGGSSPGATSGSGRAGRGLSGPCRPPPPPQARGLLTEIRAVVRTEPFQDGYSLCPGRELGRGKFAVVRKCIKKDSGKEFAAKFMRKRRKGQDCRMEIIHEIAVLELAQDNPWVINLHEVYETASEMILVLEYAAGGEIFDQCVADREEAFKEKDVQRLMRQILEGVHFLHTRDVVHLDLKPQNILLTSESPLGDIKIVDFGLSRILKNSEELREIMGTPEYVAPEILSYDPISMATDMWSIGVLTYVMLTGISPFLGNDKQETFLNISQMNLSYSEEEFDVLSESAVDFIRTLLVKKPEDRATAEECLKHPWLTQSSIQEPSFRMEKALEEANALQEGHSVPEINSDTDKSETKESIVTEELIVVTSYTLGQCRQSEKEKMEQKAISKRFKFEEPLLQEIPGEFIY
Text: as §1

[6] = Liver microsome stability, rat; assay type: in vitro ADME; details: Rat liver microsomes (#); for microsomal CLint: read-out: CLint rodent; for half-life: read-out: Rodent liver microsomes t1/2
[7] = Liver microsome stability, human; assay type: in vitro ADME; details: liver microsomes; for half-life: read-out: Human liver microsomes t1/2
[8] = target: T2, protein kinase G 2 (PKG2) (Homo sapiens, UniProt Q13237); experiment: Off-target kinase screen PKG2; assay type: biochemical; details: 1 μM test compound
T2 sequence (Q13237 1-762): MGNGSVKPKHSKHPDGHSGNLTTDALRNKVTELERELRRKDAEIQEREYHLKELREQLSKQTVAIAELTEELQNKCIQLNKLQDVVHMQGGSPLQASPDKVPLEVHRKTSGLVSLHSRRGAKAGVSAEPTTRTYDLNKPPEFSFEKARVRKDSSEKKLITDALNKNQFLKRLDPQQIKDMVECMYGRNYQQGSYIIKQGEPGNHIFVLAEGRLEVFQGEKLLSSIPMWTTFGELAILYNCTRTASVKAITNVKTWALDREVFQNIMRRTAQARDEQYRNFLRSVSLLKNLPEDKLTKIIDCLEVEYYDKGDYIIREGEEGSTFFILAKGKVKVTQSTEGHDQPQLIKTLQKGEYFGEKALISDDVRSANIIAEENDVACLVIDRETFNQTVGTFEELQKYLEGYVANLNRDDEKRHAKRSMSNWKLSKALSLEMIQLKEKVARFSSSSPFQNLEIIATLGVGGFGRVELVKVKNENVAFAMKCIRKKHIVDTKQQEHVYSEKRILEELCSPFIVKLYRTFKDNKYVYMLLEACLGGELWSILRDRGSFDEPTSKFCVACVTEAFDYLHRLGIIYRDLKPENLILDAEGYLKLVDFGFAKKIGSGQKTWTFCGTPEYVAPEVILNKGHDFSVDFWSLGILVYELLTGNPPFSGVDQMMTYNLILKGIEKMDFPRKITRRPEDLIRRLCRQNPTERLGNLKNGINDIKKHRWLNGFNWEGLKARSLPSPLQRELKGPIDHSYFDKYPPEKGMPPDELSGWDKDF
Text: as §1

Sequence of MNK2 (Q9HBH9 whole entry): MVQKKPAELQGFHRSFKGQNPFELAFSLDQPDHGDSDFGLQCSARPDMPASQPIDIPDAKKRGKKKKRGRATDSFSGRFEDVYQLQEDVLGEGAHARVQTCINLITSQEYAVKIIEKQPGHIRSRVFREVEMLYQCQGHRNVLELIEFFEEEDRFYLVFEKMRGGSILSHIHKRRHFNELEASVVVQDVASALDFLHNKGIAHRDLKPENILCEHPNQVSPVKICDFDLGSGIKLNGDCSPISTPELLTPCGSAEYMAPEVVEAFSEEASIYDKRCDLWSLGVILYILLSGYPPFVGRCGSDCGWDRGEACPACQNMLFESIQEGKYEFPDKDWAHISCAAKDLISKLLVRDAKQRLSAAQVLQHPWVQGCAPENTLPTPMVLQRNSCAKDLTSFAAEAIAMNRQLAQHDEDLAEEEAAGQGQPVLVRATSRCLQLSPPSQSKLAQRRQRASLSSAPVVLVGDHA
Sequence of MNK1 (Q9BUB5 whole entry): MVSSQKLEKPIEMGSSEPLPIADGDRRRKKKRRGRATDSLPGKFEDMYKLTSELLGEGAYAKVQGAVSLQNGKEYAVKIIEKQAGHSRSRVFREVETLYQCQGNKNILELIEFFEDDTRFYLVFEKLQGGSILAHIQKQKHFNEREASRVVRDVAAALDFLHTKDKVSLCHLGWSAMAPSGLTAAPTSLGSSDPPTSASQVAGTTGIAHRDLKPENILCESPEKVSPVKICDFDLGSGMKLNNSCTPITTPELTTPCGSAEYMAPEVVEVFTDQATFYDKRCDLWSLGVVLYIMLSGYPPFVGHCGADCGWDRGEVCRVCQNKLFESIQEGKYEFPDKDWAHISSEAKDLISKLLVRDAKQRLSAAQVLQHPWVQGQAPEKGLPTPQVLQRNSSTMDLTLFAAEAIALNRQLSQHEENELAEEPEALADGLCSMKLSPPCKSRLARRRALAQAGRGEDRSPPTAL

| Structure (SMILES) | IC50 (MNK1) [nM] | IC50 (MNK2) [nM] | IC50 [1] [nM] | Papp A-B (MDCK-MDR1) [×10⁻⁶ cm/s] | Papp B-A (MDCK-MDR1) [×10⁻⁶ cm/s] | T1/2 [2] [h] | Efflux ratio (ratio B-A/A-B) (MDCK-MDR1) | IC50 ([1]; Homo sapiens, HEK293, 2 h) [nM] | Papp A→B at 5 μM (P-gp (human MDR1, ABCB1)) [×10⁻⁶ cm/s] | Papp B→A at 5 μM (P-gp (human MDR1, ABCB1)) [×10⁻⁶ cm/s] | remaining activity at 1 µM [3] [%] | remaining activity at 1 µM [5] [%] | microsomal CLint [6] [µL/min/mg] | half-life [6] [h] | microsomal CLint [7] [µL/min/mg] | half-life [7] [h] | remaining activity at 1 µM [8] [%] | further results |
| --- | --- | --- | --- | --- | --- | --- | --- | --- | --- | --- | --- | --- | --- | --- | --- | --- | --- | --- |
| Cc1cc(Nc2cc(N)ncn2)c(=O)n2c1C(=O)NC21C[C@H]2COC[C@H]2C1 (single isomer, unassigned) [Compound 4ET-01-014A, 6′-((6-Aminopyrimidin-4-yl)amino)-8′-methyl-3a,4,6,6a-tetrahydro-1H,2′H,3H-spiro[cyclopenta[c]furan-5,3′-imidazo[1,5-a]pyridine]-1′,5′-dione] | 26 | 4 | 28.4 | 24.9 | 46.4 |  |  |  |  |  |  |  |  |  |  |  |  | half-life [2]: 4.5 h; efflux ratio at 5 μM (P-gp (human MDR1, ABCB1)): 1.9 |
| Cc1cc(Nc2cc(N)ncn2)c(=O)n2c1C(=O)NC21C[C@H]2COC[C@H]2C1 (single isomer, unassigned) [Compound 4ET-01-014B, 6′-((6-Aminopyrimidin-4-yl)amino)-8′-methyl-3a,4,6,6a-tetrahydro-1H,2′H,3H-spiro[cyclopenta[c]furan-5,3′-imidazo[1,5-a]pyridine]-1′,5′-dione] | 24.5 | 4.6 | 67.4 | 2.4 | 5.8 | 7.17 | 2.4 |  |  |  |  |  |  |  |  |  |  |  |
| Cc1cc(Nc2cc(NC(=O)C3CC3)ncn2)c(=O)n2c1C(=O)NC21C[C@H]2CNC[C@H]2C1 (single isomer, unassigned) [Compound 4ET-03-050A, N-(6-((8′-Methyl-1′,5′-dioxo-1′,2,3,3a,4,5′,6,6a-octahydro-1H,2′H-spiro[cyclopenta[c]pyrrole-5,3′-imidazo[1,5-a]pyridin]-6′-yl)amino)pyrimidin-4-yl)cyclopropanecarboxamide] | 35 | 1.32 | 2.6 | 2 | 24.5 | 1.2 | 12.4 |  |  |  |  |  |  |  |  |  |  |  |
| Cc1cc(Nc2cc(NC(=O)C3CC3)ncn2)c(=O)n2c1C(=O)NC21C[C@H]2CNC[C@H]2C1 (single isomer, unassigned) [Compound 4ET-03-050B, N-(6-((8′-Methyl-1′,5′-dioxo-1′,2,3,3a,4,5′,6,6a-octahydro-1H,2′H-spiro[cyclopenta[c]pyrrole-5,3′-imidazo[1,5-a]pyridin]-6′-yl)amino)pyrimidin-4-yl)cyclopropanecarboxamide] | 40.9 | 6.84 | 150 | 0.7 | 0.9 | 7.07 | 1.3 |  |  |  |  |  |  |  |  |  |  |  |
| Cc1cc(Nc2cc(NC(=O)C3CC3)ncn2)c(=O)n2c1C(=O)NC21Cc2ccccc2[C@@H]1F (single isomer, unassigned) [Compound 4ET-03-052A, N-(6-((1′-Fluoro-8-methyl-1,5-dioxo-1,1′,3′,5-tetrahydro-2H-spiro[imidazo[1,5-a]pyridine-3,2′-inden]-6-yl)amino)pyrimidin-4-yl)cyclopropanecarboxamide] | 4.71 | 0.5 |  |  |  |  | 6.6 | 19.2 | 12.1 | 80.6 |  |  |  |  |  |  |  | half-life [2]: 1.83 h |
| Cc1cc(Nc2cc(N)ncn2)c(=O)n2c1C(=O)NC2(C)C [Compound 4ET-01-003, 6-((6-Aminopyrimidin-4-yl)amino)-3,3,8-trimethyl-2,3-dihydroimidazo[1,5-a]pyridine-1,5-dione] |  | 2 |  |  |  |  |  |  | 9.1 | 13.3 | 91 | 65 | 2.33 | 9.93 | 1.93 | 12 | 88 | IC50 [4]: 35 nM; IC50 ([1]; Homo sapiens, HEK293): 10.5 nM |
| Cc1cc(Nc2cc(N)ncn2)c(=O)n2c1C(=O)NC21CCC(NS(C)(=O)=O)CC1 (centres unmarked) [Compound 4ET-01-004, N-(6′-((6-Aminopyrimidin-4-yl)amino)-8′-methyl-1′,5′-dioxo-1′,5′-dihydro-2′H-spiro[cyclohexane-1,3′-imidazo[1,5-a]pyridin]-4-yl)methanesulfonamide] | 104 | 8.2 |  |  |  |  |  | 33.6 | 0.1 | 0.3 | 93 | 76 | 9.57 | 2.42 | 2.56 | 9.02 | 100 | efflux ratio at 5 μM (P-gp (human MDR1, ABCB1)): 4.4 |
| Cc1cc(Nc2cc(NCCO)ncn2)c(=O)n2c1C(=O)NC21CCCCC1 [Compound 4ET-02-001, 6′-((6-((2-Hydroxyethyl)amino)pyrimidin-4-yl)amino)-8′-methyl-2′H-spiro[cyclohexane-1,3′-imidazo[1,5-a]pyridine]-1′,5′-dione] | 39.6 | 1.6 |  |  |  |  |  | 7.1 |  |  | 92 | 81 | 2.54 | 9.1 | 2.51 | 9.2 | 99 | IC50 [4]: 17 nM |
